{
  "source": "patent US12257342B2",
  "about": "“Phenylephrine hydrochloride ready-to-use solution” (Hikma Pharmaceuticals USA Inc., priority 2015, dated 2025)",
  "origin": "cited, not measured here",
  "tested_on": "α−1 adrenergic receptor",
  "conditions": "following an intravenous bolus administration",
  "data": [
    {"compound": "CNC[C@H](O)c1cccc(O)c1.Cl", "note": "[Phenylephrine hydrochloride, (−)-m-Hydroxy-α-[(methylamino)methyl]benzyl alcohol hydrochloride]", "values": [
      {"measurement": "onset of blood pressure increase", "result": "rapid"},
      {"measurement": "persistence of the blood pressure effect", "result": "up to 20 minutes"}
    ]}
  ]
}
